From the supplement of paper PMC10307832 come the findings set out here.

Experiment in all cases: relative viability (nuclei count vs DMSO), 5 days (fraction); higher = more cells survive
Compound in test [1]: Cn1cnc2c(F)c(Nc3ccc(Br)cc3Cl)c(C(=O)NOCCO)cc21 [Selumetinib] + CS(=O)(=O)CCNCc1ccc(-c2ccc3ncnc(Nc4ccc(OCc5cccc(F)c5)c(Cl)c4)c3c2)o1 [Lapatinib] (partner 2 µM)
Summed up: (§1)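 Lung cancer cell lines in 1536-well plates were dosed by pin tool the day after seeding, either with one drug alone or with a fixed anchor-drug dose plus five library-drug doses (not always all listed) in √10 steps. After 5 days, cells were fixed and their nuclei stained in one step (final 0.05% Triton X-100, 1% formaldehyde, 1 ug/ml Hoechst), then counted on 4× images. Relative viability is the nuclei count in treated wells divided by that in vehicle wells. Values are medians of duplicate plates.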

Compound in test [2]: CC1(C)CCC(CN2CCN(c3ccc(C(=O)NS(=O)(=O)c4ccc(NCC5CCOCC5)c([N+](=O)[O-])c4)c(Oc4cnc5[nH]ccc5c4)c3)CC2)=C(c2ccc(Cl)cc2)C1 [Venetoclax] + Nc1nc2[nH]cc(CCc3ccc(C(=O)N[C@@H](CCC(=O)O)C(=O)O)cc3)c2c(=O)[nH]1 [Pemetrexed] (partner 0.2 µM)
Summed up: as §1

Compound in test [3]: CC1(C)CCC(CN2CCN(c3ccc(C(=O)NS(=O)(=O)c4ccc(NCC5CCOCC5)c([N+](=O)[O-])c4)c(Oc4cnc5[nH]ccc5c4)c3)CC2)=C(c2ccc(Cl)cc2)C1 [Venetoclax] + C[C@]1(O)C[C@@H](c2nc(-c3ccc4ccc(-c5ccccc5)nc4c3)c3c(N)nccn32)C1 [Linsitinib] (partner 1 µM)
Summed up: as §1

Compound in test [4]: CC1(C)CCC(CN2CCN(c3ccc(C(=O)NS(=O)(=O)c4ccc(NCC5CCOCC5)c([N+](=O)[O-])c4)c(Oc4cnc5[nH]ccc5c4)c3)CC2)=C(c2ccc(Cl)cc2)C1 [Venetoclax] + Cc1nc(Nc2ncc(C(=O)Nc3c(C)cccc3Cl)s2)cc(N2CCN(CCO)CC2)n1 [Dasatinib] (partner 0.075 µM)
A digest of the protocol: as §1

As for NCI-H460, the relative viability stood at 0.921 in test [1] (first compound 0.02 µM); 0.709 in test [1] (first compound 0.06325 µM); 0.555 in test [1] (first compound 0.2 µM); 0.399 in test [1] (first compound 0.6325 µM); 0.062 in test [2] (first compound 0.01 µM); 0.0571 in test [2] (first compound 0.03162 µM). In addition, the relative viability in test [2] (first compound 0.1 µM) was found to be 0.0565; in test [2] (first compound 0.3162 µM), 0.0577; in test [2] (first compound 1 µM), 0.064; in test [3] (first compound 0.01 µM), 0.827; in test [3] (first compound 0.03162 µM), 0.829; in test [3] (first compound 0.1 µM), 0.665. The relative viability in test [3] (first compound 0.3162 µM) was found to be 0.632; in test [3] (first compound 1 µM), 0.726; in test [4] (first compound 0.01 µM) it was 0.597; in test [4] (first compound 0.03162 µM), 0.532; in test [4] (first compound 0.1 µM), 0.401; in test [4] (first compound 0.3162 µM), 0.527. Also, the relative viability in test [4] (first compound 1 µM) came out at 0.478.

Regarding NCI-H1395, the relative viability in test [1] (first compound 0.02 µM) was determined as 0.982; in test [1] (first compound 0.06325 µM), 0.997; in test [1] (first compound 0.2 µM), 0.93; in test [1] (first compound 0.6325 µM), 1.05; in test [2] (first compound 0.01 µM), 0.823; in test [2] (first compound 0.03162 µM) it was 0.862. For the same cell line, the relative viability in test [2] (first compound 0.1 µM) stood at 0.764; in test [2] (first compound 0.3162 µM), 0.95; in test [2] (first compound 1 µM), 0.819; in test [3] (first compound 0.01 µM), 0.951; in test [3] (first compound 0.03162 µM) it was 0.996; in test [3] (first compound 0.1 µM), 1.04. Moreover, the relative viability was determined as 1.25 in test [3] (first compound 0.3162 µM); 1.11 in test [3] (first compound 1 µM); 0.449 in test [4] (first compound 0.01 µM); 0.406 in test [4] (first compound 0.03162 µM); 0.392 in test [4] (first compound 0.1 µM); 0.442 in test [4] (first compound 0.3162 µM). Moreover, the relative viability in test [4] (first compound 1 µM) is 0.409.

On to LC-2-ad, for which the relative viability in test [1] (first compound 0.02 µM) was determined as 0.91; in test [1] (first compound 0.06325 µM), 0.879; in test [1] (first compound 0.2 µM) it was 0.736; in test [1] (first compound 0.6325 µM), 0.842; in test [2] (first compound 0.01 µM) it was 0.283; in test [2] (first compound 0.03162 µM) it was 0.27. Besides, the relative viability in test [2] (first compound 0.1 µM) was found to be 0.256; in test [2] (first compound 0.3162 µM), 0.262; in test [2] (first compound 1 µM), 0.259; in test [3] (first compound 0.01 µM), 0.807; in test [3] (first compound 0.03162 µM) it was 0.904; in test [3] (first compound 0.1 µM), 0.785. For the same cell line, the relative viability in test [3] (first compound 0.3162 µM) was found to be 0.848; in test [3] (first compound 1 µM) it was 0.798; in test [4] (first compound 0.01 µM), 0.575; in test [4] (first compound 0.03162 µM), 0.612; in test [4] (first compound 0.1 µM), 0.522; in test [4] (first compound 0.3162 µM), 0.671. The relative viability in test [4] (first compound 1 µM) amounted to 0.544.

Regarding NCI-H358, the relative viability in test [1] (first compound 0.02 µM) is 0.38; in test [1] (first compound 0.06325 µM), 0.334; in test [1] (first compound 0.2 µM) it was 0.391; in test [1] (first compound 0.6325 µM), 0.314; in test [2] (first compound 0.01 µM) it was 0.176; in test [2] (first compound 0.03162 µM) it was 0.176. Besides, the relative viability in test [2] (first compound 0.1 µM) is 0.187; in test [2] (first compound 0.3162 µM), 0.178; in test [2] (first compound 1 µM), 0.179; in test [3] (first compound 0.01 µM), 0.754; in test [3] (first compound 0.03162 µM) it was 0.812; in test [3] (first compound 0.1 µM) it was 0.624. In addition, the relative viability was found to be 0.679 in test [3] (first compound 0.3162 µM); 0.702 in test [3] (first compound 1 µM); 0.309 in test [4] (first compound 0.01 µM); 0.17 in test [4] (first compound 0.03162 µM); 0.15 in test [4] (first compound 0.1 µM); 0.158 in test [4] (first compound 0.3162 µM). Further, the relative viability in test [4] (first compound 1 µM) worked out at 0.161.

Take PC-3 [JPC-3]: the relative viability stood at 0.45 in test [1] (first compound 0.02 µM); 0.4 in test [1] (first compound 0.06325 µM); 0.415 in test [1] (first compound 0.2 µM); 0.45 in test [1] (first compound 0.6325 µM); 1.05 in test [2] (first compound 0.01 µM); 1.45 in test [2] (first compound 0.03162 µM). Also, the relative viability in test [2] (first compound 0.1 µM) stood at 1.18; in test [2] (first compound 0.3162 µM), 1.26; in test [2] (first compound 1 µM), 1.01; in test [3] (first compound 0.01 µM), 0.922; in test [3] (first compound 0.03162 µM), 1.01; in test [3] (first compound 0.1 µM) it was 0.977. The relative viability in test [3] (first compound 0.3162 µM) turned out to be 0.938; in test [3] (first compound 1 µM) it was 0.949; in test [4] (first compound 0.01 µM) it was 0.863; in test [4] (first compound 0.03162 µM) it was 0.991; in test [4] (first compound 0.1 µM), 0.995; in test [4] (first compound 0.3162 µM) it was 1.01. In test [4] (first compound 1 µM), the relative viability came out at 0.942.

For CAL-12T, the relative viability turned out to be 0.542 in test [1] (first compound 0.02 µM); 0.425 in test [1] (first compound 0.06325 µM); 0.523 in test [1] (first compound 0.2 µM); 0.521 in test [1] (first compound 0.6325 µM); 0.965 in test [2] (first compound 0.01 µM); 1.23 in test [2] (first compound 0.03162 µM). The relative viability in test [2] (first compound 0.1 µM) came to 1.14; in test [2] (first compound 0.3162 µM), 1.22; in test [2] (first compound 1 µM), 1.19; in test [3] (first compound 0.01 µM) it was 0.728; in test [3] (first compound 0.03162 µM) it was 0.931; in test [3] (first compound 0.1 µM) it was 0.685. In addition, the relative viability was determined as 0.776 in test [3] (first compound 0.3162 µM); 0.691 in test [3] (first compound 1 µM); 0.286 in test [4] (first compound 0.01 µM); 0.476 in test [4] (first compound 0.03162 µM); 0.381 in test [4] (first compound 0.1 µM); 0.398 in test [4] (first compound 0.3162 µM). The relative viability in test [4] (first compound 1 µM) amounted to 0.314.
